Assay results taken from the supplement of paper PMC10331698.
± gives the standard deviation of the averaged measurements.

Columns and labels:
Test in all cases: level (log10 ratio to DMSO vehicle control); higher = higher biomarker level / cell amount than vehicle control
Conditions in all cases: in DMSO
[1] = compound: O=S(=O)(O)C(F)(F)C(F)(F)C(F)(F)C(F)(F)F [Perfluorobutanesulfonic acid]
Experimental: (§1)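 BioMAP Diversity Plus panel of 12 human primary cell co-culture systems (3C, 4H, LPS, SAg, BT, BF4T, BE3C, CASM3C, HDF3CGF, KF3CT, MyoF, Mphg). Compounds were added 1 h before stimulation and left for 24 h (MyoF 48 h; BT 72 h for soluble read-outs or 6 d for IgG). Biomarkers were read by ELISA, cytotoxicity by SRB, PBMC viability and proliferation by Alamar Blue. Each well value was divided by the mean of 8 DMSO control wells on the same plate and log10 transformed; duplicate blinded samples were tested at 4 concentrations.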

Hexafluoroglutaric acid = compound: O=C(O)C(F)(F)C(F)(F)C(F)(F)C(=O)O [Hexafluoroglutaric acid]
Experimental: as §1

Perfluorooctanamide = compound: NC(=O)C(F)(F)C(F)(F)C(F)(F)C(F)(F)C(F)(F)C(F)(F)C(F)(F)F [Perfluorooctanamide]
Experimental: as §1

[2] = compound: O=C(O)C(F)(F)C(F)(F)C(F)(F)C(F)(F)C(F)(F)C(F)(F)C(F)(F)C(F)(F)C(F)(F)C(F)(F)C(F)(F)C(F)(F)C(F)(F)F [Perfluorotetradecanoic acid]
Experimental: as §1

Azathioprine = compound: Cn1cnc([N+](=O)[O-])c1Sc1ncnc2[nH]cnc12 [Azathioprine]
Experimental: as §1

1H,1H-Heptafluorobutanol = compound: OCC(F)(F)C(F)(F)C(F)(F)F [1H,1H-Heptafluorobutanol]
Experimental: as §1

Test System | level (log10) ([1]; 6700 nM) | level (log10) ([1]; 20000 nM) | level (log10) ([1]; 60000 nM) | level (log10) (Hexafluoroglutaric acid; 6700 nM) | level (log10) (Hexafluoroglutaric acid; 20000 nM) | level (log10) (Hexafluoroglutaric acid; 60000 nM) | level (log10) (Perfluorooctanamide; 6700 nM) | level (log10) (Perfluorooctanamide; 20000 nM) | level (log10) (Perfluorooctanamide; 60000 nM) | level (log10) ([2]; 6700 nM) | level (log10) ([2]; 20000 nM) | level (log10) (Azathioprine; 1400 nM) | level (log10) (Azathioprine; 4200 nM) | level (log10) (Azathioprine; 13000 nM) | level (log10) (Azathioprine; 38000 nM) | level (log10) (1H,1H-Heptafluorobutanol; 6700 nM) | level (log10) (1H,1H-Heptafluorobutanol; 20000 nM) | level (log10) (1H,1H-Heptafluorobutanol; 60000 nM)
3C:CD87/uPAR | -0.007 ± 0.027 | -0.0075 ± 0.00071 | -0.0235 ± 0.022 | -0.0075 ± 0.018 | -0.0105 ± 0.028 | 0.0025 ± 0.013 | 0.0075 ± 0.011 | 0.004 ± 0.0099 | 0.0045 ± 0.0092 | 0.032 ± 0.081 | 0.0405 ± 0.073 | 0.0255 ± 0.037 | 0.016 ± 0.033 | 0.0565 ± 0.018 | 0.044 ± 0.0071 | -0.011 ± 0.025 | 0.0085 ± 0.023 | 0.026 ± 0.021
4H:CCL26/Eotaxin-3 | -0.0025 ± 0.054 | -0.001 ± 0.051 | -0.048 ± 0.028 | 0.0155 ± 0.035 | 0.0155 ± 0.013 | 0.0235 ± 0.0078 | 0.033 ± 0.055 | 0.021 ± 0.031 | 0.0275 ± 0.04 | -0.0595 ± 0.019 | -0.0575 ± 0.047 | 0.016 ± 0.0099 | -0.009 ± 0.021 | -0.003 ± 0.011 | -0.0255 ± 0.035 | 0.017 ± 0.03 | 0.01 ± 0.014 | 0.0255 ± 0.021
SAg:CD38 | -0.005 ± 0.0028 | -0.0085 ± 0.0064 | -0.0155 ± 0.00071 | -0.002 ± 0.0071 | -0.0075 ± 0.00071 | 0.0075 ± 0.021 | 0.0005 ± 0.005 | 0.0085 ± 0.028 | 0.003 ± 0.018 | -0.0205 ± 0.03 | -0.018 ± 0.016 | 0.0035 ± 0.0035 | -0.0035 ± 0.00071 | -0.0265 ± 0.013 | -0.0765 ± 0.03 | -0.028 ± 0.064 | -0.0145 ± 0.015 | -0.0115 ± 0.088
BT:sIL-17F | 0.008 ± 0.0057 | 0.0145 ± 0.04 | -0.0225 ± 0.0064 | 0.046 ± 0.071 | 0.0335 ± 0.05 | -0.004 ± 0.0085 | 0.0205 ± 0.0064 | -0.0165 ± 0.035 | -0.0955 ± 0.1 | -0.019 ± 0.058 | -0.0085 ± 0.028 | -0.0825 ± 0.079 | -0.041 ± 0.12 | -0.092 ± 0.054 | -0.254 ± 0.025 | -0.007 ± 0.035 | -0.0425 ± 0.29 | -0.0385 ± 0.032
SAg:CXCL8/IL-8 | -0.0025 ± 0.023 | -0.001 ± 0.014 | 0.049 ± 0.037 | -0.011 | -0.041 ± 0.042 | 0.0285 ± 0.077 | -0.019 ± 0.041 | -0.0255 ± 0.0021 | 0.056 | -0.028 ± 0.051 | 0.0035 ± 0.069 | 0.022 ± 0.1 | -0.038 ± 0.061 | -0.13 ± 0.021 | -0.304 ± 0.013 | 0.012 ± 0.0085 | -0.0055 ± 0.0021 | -0.0045 ± 0.1
LPS:CD141/Thrombomodulin | -0.048 ± 0.0085 | -0.0045 ± 0.015 | -0.024 ± 0.031 | 0.002 ± 0.0071 | -0.022 ± 0.021 | -0.0355 ± 0.032 | -0.016 ± 0.03 | -0.0075 ± 0.0064 | -0.0155 ± 0.037 | 0.009 ± 0.1 | -0.002 ± 0.072 | 0.046 ± 0.061 | 0.04 ± 0.037 | 0.0455 ± 0.035 | -0.0055 ± 0.067 | 0.01 ± 0.013 | 0.003 ± 0.016 | -0.008 ± 0.011
SAg:SRB | 0.0005 ± 0.0092 | -0.0085 ± 0.0092 | -0.0055 ± 0.013 | -0.0055 ± 0.00071 | -0.0105 ± 0.016 | -0.0035 ± 0.016 | 0.002 ± 0.0071 | -0.0005 ± 0.0064 | -0.009 ± 0.0014 | -0.0025 ± 0.013 | -0.008 ± 0.024 | 0.002 ± 0.0057 | 0.0045 ± 0.013 | -0.009 ± 0.0042 | -0.0205 ± 0.026 | -0.0055 ± 0.011 | 0.0045 ± 0.0035 | 0.004 ± 0.0057
BF4T:PAI-I | -0.0075 ± 0.0092 | -0.005 ± 0.0042 | 0.0015 ± 0.005 | -0.0085 ± 0.022 | -0.002 ± 0.021 | 0.0165 ± 0.011 | -0.009 ± 0.023 | -0.004 ± 0.017 | 0.0065 ± 0.005 | 0.014 ± 0.0028 | 0.0245 ± 0.029 | 0.004 ± 0.017 | -0.001 ± 0.0099 | -0.009 ± 0.0014 | -0.005 ± 0.013 | -0.015 ± 0.0042 | -0.009 | 0.0025 ± 0.028
SAg:CXCL9/MIG | -0.0105 ± 0.00071 | 0.002 ± 0.014 | -0.002 ± 0.02 | -0.0015 ± 0.00071 | -0.012 ± 0.0042 | -0.0005 ± 0.005 | -0.0075 ± 0.005 | -0.0025 ± 0.012 | 0.009 ± 0.0057 | -0.004 ± 0.014 | 0.001 ± 0.0085 | 0.006 ± 0.024 | 0.002 ± 0.0057 | 0.0025 ± 0.0078 | 0.008 ± 0.0085 | -0.003 ± 0.031 | -0.001 ± 0.018 | 0.018 ± 0.014
LPS:CD142/Tissue Factor | 0.016 ± 0.038 | -0.0155 ± 0.039 | -0.0175 ± 0.016 | 0.0325 ± 0.08 | -0.0085 ± 0.077 | -0.0285 ± 0.081 | -0.0585 ± 0.0092 | 0.0025 ± 0.032 | -0.002 ± 0.0042 | 0.0225 ± 0.04 | 0.0025 ± 0.098 | 0.042 ± 0.028 | 0.014 ± 0.0042 | 0.0375 ± 0.0064 | -0.0085 ± 0.044 | 0.012 ± 0.05 | 0.015 ± 0.034 | -0.0125 ± 0.0078
BF4T:CD90 | -0.007 ± 0.0042 | -0.008 ± 0.021 | -0.015 ± 0.011 | 0.0025 ± 0.0092 | 0.009 ± 0.0042 | 0.0175 ± 0.005 | -0.0065 ± 0.0021 | -0.0035 ± 0.021 | -0.0155 ± 0.0035 | -0.0125 ± 0.011 | -0.005 ± 0.0042 | -0.0025 ± 0.00071 | -0.0075 ± 0.0035 | -0.0305 ± 0.023 | -0.024 ± 0.018 | -0.0035 ± 0.012 | -0.0045 ± 0.021 | -0.0045 ± 0.0035
SAg:CD69 | -0.008 ± 0.0028 | -0.013 ± 0.017 | -0.043 ± 0.037 | -0.0125 ± 0.0064 | -0.016 ± 0.013 | 0.005 ± 0.0042 | -0.002 ± 0.028 | 0.0025 ± 0.013 | -0.0065 ± 0.023 | -0.0155 ± 0.016 | -0.018 ± 0.028 | 0.0215 ± 0.044 | -0.0295 ± 0.016 | -0.039 ± 0.018 | -0.12 ± 0.013 | -0.013 ± 0.017 | -0.0035 ± 0.016 | 0.02 ± 0.016
BF4T:CXCL8/IL-8 | -0.0205 ± 0.0064 | 0.006 ± 0.0057 | 0.0095 ± 0.013 | 0.0125 ± 0.039 | 0.009 ± 0.041 | 0.0345 ± 0.0035 | -0.0035 ± 0.013 | -0.0005 ± 0.026 | -0.0025 ± 0.03 | 0.0325 ± 0.012 | 0.0275 ± 0.028 | -0.013 ± 0.011 | -0.0325 ± 0.0064 | -0.0455 ± 0.016 | -0.0405 ± 0.016 | 0.019 ± 0.071 | 0.03 ± 0.071 | 0.034 ± 0.089
SAg:PBMC Cytotoxicity | -0.029 ± 0.038 | -0.0315 ± 0.036 | 0.023 ± 0.024 | 0.0035 ± 0.0078 | 0.014 ± 0.0042 | -0.005 ± 0.058 | -0.027 ± 0.038 | -0.0135 ± 0.025 | 0.024 ± 0.034 | -0.051 ± 0.014 | -0.016 ± 0.024 | -0.007 ± 0.033 | -0.0015 ± 0.044 | -0.0385 ± 0.03 | -0.0635 ± 0.023 | -0.0165 ± 0.012 | -0.024 ± 0.024 | 0.0155 ± 0.047
BF4T:CD106/VCAM-1 | -0.0175 ± 0.0078 | -0.0325 ± 0.046 | -0.021 ± 0.0028 | -0.0055 ± 0.023 | -0.0095 ± 0.0078 | -0.002 ± 0.017 | -0.009 ± 0.02 | 0 ± 0.0099 | -0.0005 ± 0.03 | -0.011 ± 0.014 | -0.037 ± 0.031 | -0.0185 ± 0.015 | -0.026 ± 0.025 | -0.038 | -0.139 ± 0.016 | -0.0155 ± 0.0021 | -0.0105 ± 0.019 | -0.005 ± 0.0071
BE3C:CXCL9/MIG | 0.01 ± 0.034 | 0.0025 ± 0.023 | 0.013 ± 0.0057 | 0.001 ± 0.0042 | 0.008 | -0.0055 ± 0.0021 | 0.0075 ± 0.028 | 0.0025 ± 0.019 | 0.012 ± 0.011 | -0.016 ± 0.02 | -0.006 ± 0.017 | -0.006 ± 0.0085 | 0.0005 ± 0.0035 | -0.0025 ± 0.013 | -0.0015 ± 0.013 | -0.001 | 0.0025 ± 0.0035 | 0.007 ± 0.0028
BE3C:CD54/ICAM-1 | -0.0185 ± 0.0021 | -0.009 ± 0.0028 | -0.021 ± 0.0057 | 0.018 ± 0.0042 | 0.0095 ± 0.018 | 0.009 ± 0.02 | -0.012 ± 0.0042 | -0.0075 ± 0.012 | -0.022 ± 0.033 | -0.003 ± 0.025 | 0.015 ± 0.062 | 0 ± 0.018 | -0.0115 ± 0.013 | -0.0075 ± 0.0078 | -0.001 ± 0.031 | -0.0035 ± 0.0092 | -0.0105 ± 0.00071 | 0.0085 ± 0.011
